Assay results reported in patent US10398710B2, “Method for screening regulator of mitochondrial fission” (priority 2015, dated 2019).
Values after ≈ are worked out from the molar mass of the structure shown. Peptide text beside a SMILES is read from it. * marks the point of attachment. Cbz = O=C(OCc1ccccc1)*; CH2F = FC*

Experiments:
MCF-7 cells [1] = assay: WST-1 viability of MCF-7 cells treated with PPD-type ginsenoside compounds; format: cell-based, human; details: MCF-7, 0-200 μg/mL, 24 hours
Procedure: First, MCF-7 cells, a human breast cancer cell line, were inoculated in a DMEM culture medium containing 10% FBS and 1% penicillin/streptomycin, and were then cultured at conditions of 37° C. and 5% CO2. When the cultured MCF-7 cells were saturated, subculture thereof was followed in a three- to five-day interval.
The cultured MCF-7 cells were treated with the PPD-type ginsenoside compounds (F2, Rh2, C-K, or PPD) at various concentrations (0, 5, 10, 20, 50, 100, or 200 μg/mL) for 24 hours, and WST-1 analysis was then performed on the cells to measure viability thereof (FIG. 1). The WST-1 analysis was performed by inoculating each cell in a culture medium containing 10% EZ-Cytox and reacting at 37° C. for 1.5 hours, followed by measuring a level of water-soluble formazan dye produced by the viable cells as absorbance (450 nm) and analyzing the same to calculate the cell viability.

MCF-7 cells [2] = assay: Western blot of mitochondrial fission- and fusion-related proteins; format: cell-based, human; details: 10 μg/mL, 24 hours
Procedure: In this regard, Western blot analysis was performed for each cultured cell to compare an expression level of the mitochondrial fission-related proteins (Drp1, Fis1, or OPA-3) and mitochondrial fusion-related proteins (Mfn1. Mfn2, or OPA1) (FIG. 5b).

MCF-7 cells [3] = assay: Western blot of apoptosis-related proteins (pJNK, cleaved-PARP, cleaved-caspase-9); format: cell-based, human; details: for level of cleaved-PARP, effect of ginsenoside treatment / level of cleaved-caspase-9, effect of ginsenoside treatment / level of pJNK, effect of ginsenoside treatment: 10 μg/mL ginsenoside with 5 μg/mL doxorubicin
Procedure: A culture medium containing 10 μg/mL of C-K or PPD was added to the MCF-7 cells, was cultured for 12 hours, and was then replaced with a culture medium containing 10 μg/mL of C-K or PPD and 0 g/mL or 5 μg/mL of doxorubicin, followed by 24 hours of culturing. The cultured cells were destroyed, and Western blot analysis was performed using a pJNK antibody, PARP antibody, cleaved-PARP antibody, caspase-9 antibody, or cleaved-caspase-9 antibody (FIG. 3a).
Accordingly, a culture medium containing 10 μg/mL of PPD was added to the MCF-7 cells, was cultured for 12 hours, and was then replaced with a culture medium containing 10 μg/mL of PPD and 5 μg/mL of doxorubicin, followed by 0, 0.5, 1, 2, 4, or 6 hours of culturing. Western blot analysis was performed using the cultured cells in the same manner as above (FIG. 3b). As a comparison group, cells cultured in a culture medium containing doxorubicin only was used instead of that containing both PPD and doxorubicin.

MCF-7 cells [4] = assay: Fluorescence staining of mitochondria with Tom-20; format: cell-based, human; details: 10 μg/mL, 24 hours, Tom-20 staining
Procedure: In other words, a culture medium containing 10 μg/mL of C-K or PPD was added to MCF-7 cells and was cultured for 24 hours. The cultured cells were fixed by adding 4% paraformaldehyde and were perforated by adding a 0.5% Triton X-100 solution, followed by staining the mitochondria using Tom-20. The stained cells were washed with PBS and were recorded with a confocal microscope to measure a level of fluorescence (FIG. 5a).

MCF-7 cells [5] = assay: WST-1 viability of MCF-7 cells pretreated with ginsenoside, then treated with doxorubicin or tamoxifen; format: cell-based; details: for effect on anticancer activity of doxorubicin / anticancer activity with doxorubicin compared to only doxorubicin: 10 μg/mL ginsenoside 12 hours; for effect on anticancer activity of doxorubicin: then 5 μg/mL doxorubicin 12 hours; for anticancer activity with doxorubicin compared to only doxorubicin: then doxorubicin 0-50 μg/mL 24 hours
Procedure: Specifically, 10 μg/mL of PPD-type ginsenoside compound (F2, Rh2, C-K, or PPD) was added to the MCF-7 cells and was cultured for 12 hours. 20 μM of tamoxifen or 5 μg/mL of doxorubicin was then treated, and 12 hours of culturing was performed. Upon completion of the culturing, viability of MCF-7 cells was compared via WST-1 analysis (FIG. 2a).
Accordingly, in order to investigate whether C-K or PPD has an effect on a treatment concentration of doxorubicin, 10 μg/mL of the PPD-type ginsenoside compound (C-K or PPD) was added and cultured for 12 hours. Doxorubicin at various concentrations (0, 0.1, 0.5, 1, 2, 5, 10, and 50 μg/mL) was then treated and cultured for 24 hours, followed by comparing viabilities of the MCF-7 cells and also comparing LC50 values calculated therefrom via WST-1 analysis (FIG. 2b).

MCF-7 cells [6] = assay: Effect of PARP or caspase-9 inhibitor on the anticancer effect of doxorubicin with C-K or PPD; format: cell-based, human; details: for anticancer activity of doxorubicin under PARP activity inhibitor with ginsenoside: 10 μg/mL ginsenoside and 5 μg/mL doxorubicin; for anticancer effect of doxorubicin in cells treated with the inhibitor: all control and experiment groups, 5 μg/mL doxorubicin 24 hours
Procedure: Specifically, a culture medium containing 10 μg/mL of C-K or PPD was added to MCF-7 cells already treated with Z-LEHD-FMK, an inhibitor of caspase-9, or 3-AB, an inhibitor of PARP, was cultured for 12 hours, and was then replaced with a culture medium containing 10 μg/mL of C-K or PPD and 0 g/mL or 5 μg/mL of doxorubicin, followed by 24 hours of culturing. Western blot analysis was performed using the cultured cells in the same manner as above (FIG. 3c).

MCF-7 cells [7] = assay: Cytochrome-C release from mitochondria, immunofluorescent staining; format: cell-based, human; details: for increase in level of cytochrome-C release compared to doxorubicin alone / total cells from which cytochrome-C was released, ginsenoside and doxorubicin: 10 μg/mL ginsenoside 24 hours; for increase in level of cytochrome-C release compared to doxorubicin alone: then 5 μg/mL doxorubicin 4 hours; for total cells from which cytochrome-C was released, ginsenoside and doxorubicin: then 5 μg/mL doxorubicin
Procedure: A culture medium containing 10 μg/mL of C-K or PPD was added to MCF-7 cells, was cultured for 24 hours, and was then replaced with a culture medium containing 5 μg/mL of doxorubicin, followed by 0 or 4 hours of culturing. The cultured cells were fixed by adding 4% paraformaldehyde and were perforated by adding an 0.5% Triton X-100 solution, followed by 30 minutes of immunostaining using a cytochrome-C antibody. After staining, the cells were washed with PBS. Stained second antibodies were heated for 30 minutes and washed with PBS, followed by being recorded with a confocal microscope, to measure a level of fluorescence (FIG. 4a).
In this regard, whether the level of cytochrome-C release changes depending on treatment time of doxorubicin was investigated. In other words, a culture medium containing 10 μg/mL of C-K or PPD was added to MCF-7 cells, was cultured for 24 hours, and was then replaced with a culture medium containing 5 μg/mL of doxorubicin, followed by 0, 0.5, 1, 2, 4, or 6 hours of culturing. The immunofluorescent staining was performed in the same manner as previously described except the culturing time to measure the number of cytochrome-C released into cytoplasm from mitochondria (FIG. 4b). As a control group, an experiment group untreated with ginsenoside was used.

MCF-7 cells [8] = assay: WST-1 viability of siRNA-treated MCF-7 cells treated with doxorubicin or tamoxifen; format: cell-based, human; details: siRNA-treated MCF-7, 5 μM doxorubicin or 20 μM tamoxifen, 24 hours
Procedure: Meanwhile, each synthesized siRNA was inoculated into MCF-7 cells and was cultured for 12 hours. The cells were again cultured in a standard culture medium in which siRNA is not contained for 48 hours, followed by treating with 5 μM doxorubicin or 20 μM tamoxifen and culturing for 24 hours. After culturing, viabilities of the MCF-7 cells were measured via WST-1 analysis (FIG. 6b). As a control group, cells cultured without treating with doxorubicin or tamoxifen were used.

[9] = 10 μg/mL PPD and 5 μg/mL doxorubicin, 0-6 hours

SMILES | anticancer activity against breast cancer cells (viability) (MCF-7 cells [1]) | expression level of mitochondrial fission-related protein OPA-3 (MCF-7 cells [2]) | expression level of mitochondrial fusion-related protein Mfn2 (MCF-7 cells [2]) | level of cleaved-PARP, effect of ginsenoside treatment (MCF-7 cells [3]; 24 hours) | level of cleaved-caspase-9, effect of ginsenoside treatment (MCF-7 cells [3]; 24 hours) | level of pJNK, effect of ginsenoside treatment (MCF-7 cells [3]; 24 hours) | state of mitochondria compared to negative control group (MCF-7 cells [4]) | effect on anticancer activity of doxorubicin (MCF-7 cells [5]) | anticancer activity with doxorubicin compared to only doxorubicin (MCF-7 cells [5]) | anticancer activity of doxorubicin under PARP activity inhibitor with ginsenoside (MCF-7 cells [6]) | increase in level of cytochrome-C release compared to doxorubicin alone (MCF-7 cells [7]) | total cells from which cytochrome-C was released, ginsenoside and doxorubicin (MCF-7 cells [7]; after 6 hours) [%] | anticancer effect of doxorubicin in cells treated with the inhibitor (MCF-7 cells [6]) | anticancer activity on cells with mitochondrial fission (MCF-7 cells [8]) | change of anticancer activity depending on siRNA (Mfn2 inhibited compared to Mfn1 inhibited) (MCF-7 cells [8]) | other results
CC(C)=CCC[C@](C)(O[C@@H]1OC(CO)[C@@H](O)C(O)C1O)C1CC[C@]2(C)C1[C@H](O)CC1[C@@]3(C)CCC(O)C(C)(C)C3CC[C@]12C (some centres unmarked) [C-K, compound-K] | relatively excellent anticancer activity | increased | decreased | not affected | noticeably increased | not affected | damaged | could enhance an anticancer activity by doxorubicin | increased | somewhat recovered | higher | 20 |  |  |  | 
NC(=O)c1cccc(N)c1 [PARP inhibitor, 3-AB, reference compound] |  |  |  |  |  |  |  |  |  |  |  |  | inhibited |  |  | 
CC(C)=CCC[C@](C)(O)[C@H]1CC[C@]2(C)[C@@H]1[C@H](O)C[C@@H]1[C@@]3(C)CC[C@H](O)C(C)(C)[C@@H]3CC[C@]12C [PPD, protopanaxadiol] | relatively excellent anticancer activity | increased | decreased | not affected | significantly increased | not affected | damaged | could enhance an anticancer activity by doxorubicin | increased | somewhat recovered | higher | 43 |  |  |  | formation of cleaved-PARP over time compared to doxorubicin only (MCF-7 cells [3]; [9]): faster; formation of cleaved-caspase-9 over time compared to doxorubicin only (MCF-7 cells [3]; [9]): faster
COC(=O)CC[C@H](NC(=O)[C@H](CC(C)C)NC(=O)OCc1ccccc1)C(=O)N[C@@H](Cc1cnc[nH]1)C(=O)N[C@@H](CC(=O)OC)C(=O)CF [caspase-9 inhibitor, Z-LEHD-FMK, reference compound] (Cbz-LE(OMe)HD(OMe)-CH2F) |  |  |  |  |  |  |  |  |  |  |  |  | inhibited |  |  | 
COc1cccc2c1C(=O)c1c(O)c3c(c(O)c1C2=O)C[C@@](O)(C(=O)CO)C[C@@H]3O[C@H]1C[C@H](N)[C@H](O)[C@H](C)O1 [doxorubicin, reference compound] |  |  |  |  |  |  |  |  |  |  |  |  |  | significantly higher anticancer activity | significantly increased | level of cleaved-PARP (MCF-7 cells [3]; 5 μg/mL doxorubicin, 24 hours): increased; level of cleaved-caspase-9 (MCF-7 cells [3]; 5 μg/mL doxorubicin, 24 hours): increased; level of pJNK (MCF-7 cells [3]; 5 μg/mL doxorubicin, 24 hours): increased; CC50 (MCF-7 cells [5]; Homo sapiens, MCF7, 24 h, read-out: LC50): ~10 µg/mL (≈ 18.4 µM); level of cytochrome-C release compared to no doxorubicin (MCF-7 cells [7]; 5 μg/mL doxorubicin, 4 hours): increased; total cells from which cytochrome-C was released (MCF-7 cells [7]; only doxorubicin 5 μg/mL, after 6 hours): 7%
CC/C(=C(\c1ccccc1)c1ccc(OCCN(C)C)cc1)c1ccccc1 [tamoxifen] |  |  |  |  |  |  |  |  |  |  |  |  |  | showed the anticancer activity | no difference | 
